A short description of data set [1]: ThT assay: fibril formation propensity and peptide recovery. Type of data set: physicochemical. Particulars: for ThT, pH 4.0 lag-time: 250 μM peptide, 10 mM glycylglycine pH 4.0, 1 μM ThT, 37 °C, 960 rpm, 45 h, lowest of four replicas, average of experiments; for recovery: pH 4.0, residual dissolved peptide after 45 h of shaking, centrifugation and 0.22 μm filtration, HPLC, relative to amount before stress. Put shortly: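 Peptides at 250 μM in 10 mM glycylglycine (pH 4.0) or HEPES (pH 7.5) with 1 μM ThT, shaken at 37 °C, 960 rpm, for 45 h; ThT fluorescence (ex 444/em 485 nm) read every 20 min. Lag time is the lowest of four replicates (>45 h if none); recovery is soluble peptide by HPLC after centrifugation/filtration, relative to pre-stress.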

For a further data set, the target named is T1, rat AMY3R (Rattus norvegicus, UniProt P32214+Q9JJ73).
T1 construct: expressed in transfected cells; host or cells: BHK tk-ts 13, transient co-transfection (FuGENE 6)
T1 sequence (P32214 25-479 isoform P32214-2 limits assumed): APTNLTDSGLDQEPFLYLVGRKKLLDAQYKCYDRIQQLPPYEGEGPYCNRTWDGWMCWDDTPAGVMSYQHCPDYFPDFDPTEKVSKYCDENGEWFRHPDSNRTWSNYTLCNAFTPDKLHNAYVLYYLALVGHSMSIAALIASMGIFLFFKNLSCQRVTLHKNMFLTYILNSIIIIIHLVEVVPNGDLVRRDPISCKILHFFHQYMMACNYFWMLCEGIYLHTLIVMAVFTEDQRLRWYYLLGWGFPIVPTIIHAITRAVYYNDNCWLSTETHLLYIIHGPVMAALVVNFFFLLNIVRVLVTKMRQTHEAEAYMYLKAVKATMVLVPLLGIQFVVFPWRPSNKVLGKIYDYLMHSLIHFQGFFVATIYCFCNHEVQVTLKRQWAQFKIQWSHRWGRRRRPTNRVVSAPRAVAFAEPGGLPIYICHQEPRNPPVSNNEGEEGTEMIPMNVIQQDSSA
T1 sequence (Q9JJ73 23-147 partner): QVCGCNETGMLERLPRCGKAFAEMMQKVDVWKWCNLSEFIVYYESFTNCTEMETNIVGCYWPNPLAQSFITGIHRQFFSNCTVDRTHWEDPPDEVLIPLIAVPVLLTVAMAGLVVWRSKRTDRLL
The data set can be described thus: cAMP FlashPlate assay, rat AMY3R. Particulars: for EC50: cAMP (rat receptor assay); for ratio rCTR/rAMY3R: ratio of cAMP EC50 values. Format: cell-based.

Data set [2] is described as follows: HMWP content by size-exclusion chromatography. Type of data set: physicochemical. As to conditions: analogs 10–21 (pH 4.0 series); covalent dimers and polymers prior to fibril formation testing, SEC, % of total absorbance area at 215 nm. Put shortly: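 Amylin analogs analysed before fibril-formation testing by isocratic SEC in 0.5 M NaCl, 10 mM sodium dihydrogen phosphate, 5 mM ortho-phosphoric acid, 50% (v/v) 2-propanol. HMWP (covalent dimers/polymers) given as peak absorbance area percentage of total, assuming equal extinction coefficients for HMWP and main peak.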
(SEC sorts molecules by how far they enter the pores of the column.)

Data set [3] can be described thus: Solubility versus pH profile.
The mark [4] stands for this setting: Tables S12 and S14, read-out: rAMY3R pEC50 (converted).
Where [5] appears, read: transiently transfected BHK tk-ts 13 cells, FlashPlate, 30 min room temperature, 2% HSA, read-out: rAMY3R EC50.
Where [6] appears, read: bis-tris-propane buffer, pH 6, aqueous buffer.
[7] abbreviates: bis-tris-propane buffer, pH 6.5, aqueous buffer.
The mark [8] stands for this setting: bis-tris-propane buffer, pH 7, aqueous buffer.
Setting [9] is: bis-tris-propane buffer, pH 7.5, aqueous buffer.
Where [10] appears, read: bis-tris-propane buffer, pH 8, aqueous buffer.
Setting [11] is: lactate buffer, pH 4, aqueous buffer.
Where [12] appears, read: lactate buffer, pH 5, aqueous buffer.

Where two headings read alike, the source gives them in different places. Where only a bound is given, the exact number is not on record here.

One may read the kinetic solubility as solubility judged after dilution from a stock solution rather than from solid.

As for `CC[C@H](C)[C@H](NC(=O)[C@H](C)NC(=O)CNC(=O)[C@H](Cc1ccccc1)NC(=O)[C@H](CC(N)=O)NC(=O)[C@@H]1CCCN1C(=O)[C@H](CO)NC(=O)[C@H](CO)NC(=O)[C@H](Cc1c[nH]cn1)NC(=O)[C@H](CCCNC(=N)N)NC(=O)[C@H](CC(C)C)NC(=O)[C@H](Cc1ccccc1)NC(=O)[C@H](CC(N)=O)NC(=O)[C@H](C)NC(=O)[C@H](CC(C)C)NC(=O)[C@H](CCCNC(=N)N)NC(=O)[C@H](CCC(N)=O)NC(=O)[C@@H](NC(=O)[C@H](C)NC(=O)[C@@H]1CSSC[C@H](NC(=O)[C@H](CCCCN)NC(=O)CC[C@H](NC(=O)CCCCCCCCCCCCCCCCCCC(=O)O)C(=O)O)C(=O)N[C@@H](CC(N)=O)C(=O)N[C@@H]([C@@H](C)O)C(=O)N[C@@H](C)C(=O)N[C@@H]([C@@H](C)O)C(=O)N1)[C@@H](C)O)C(=O)N1CCC[C@H]1C(=O)N[C@@H](CO)C(=O)N[C@@H](CO)C(=O)N[C@H](C(=O)N[C@@H](CC(N)=O)C(=O)N[C@H](C(=O)NCC(=O)N[C@@H](Cc1c[nH]cn1)C(=O)N[C@@H](CC(N)=O)C(=O)N[C@H](C(=O)N[C@@H](Cc1ccc(O)cc1)C(N)=O)[C@@H](C)O)C(C)C)[C@@H](C)O` [Peptide 17], in data set [1], the “ThT, pH 4.0 lag-time” value is 26 h. The compound further gave a recovery in data set [1] of 92%. For the same compound, the EC50 on rat AMY3R (setting [4]) is 0.933 nM; on rat AMY3R (setting [5]), 0.926 nM. The “ratio rCTR/rAMY3R” value at rat AMY3R turned out to be 18. For the same compound, in data set [2], the HMWP came out at 1.7%. Besides, the solubility (kinetic) in data set [3] (setting [6]), in data set [3] (setting [7]), in data set [3] (setting [8]), in data set [3] (setting [9]), in data set [3] (setting [10]) and in data set [3] (setting [11]) was no less than 200 µM each time. The compound further returned a kinetic solubility in data set [3] (setting [12]) of no less than 200 µM.
In the case of `CC[C@H](C)[C@H](NC(=O)[C@H](C)NC(=O)CNC(=O)[C@H](Cc1ccccc1)NC(=O)[C@H](CC(N)=O)NC(=O)[C@@H]1CCCN1C(=O)[C@H](CO)NC(=O)[C@H](CO)NC(=O)[C@H](Cc1c[nH]cn1)NC(=O)[C@H](CCCNC(=N)N)NC(=O)[C@H](CC(C)C)NC(=O)[C@H](Cc1ccccc1)NC(=O)[C@H](CC(N)=O)NC(=O)[C@H](C)NC(=O)[C@H](CC(C)C)NC(=O)[C@H](CCCNC(=N)N)NC(=O)[C@H](CCC(N)=O)NC(=O)[C@@H](NC(=O)[C@H](C)NC(=O)[C@@H]1CSSC[C@H](NC(=O)[C@H](CCCCN)NC(=O)CC[C@H](NC(=O)CCCCCCCCCCCCCCCCCCC(=O)O)C(=O)O)C(=O)N[C@@H](CC(N)=O)C(=O)N[C@@H]([C@@H](C)O)C(=O)N[C@@H](C)C(=O)N[C@@H]([C@@H](C)O)C(=O)N1)[C@@H](C)O)C(=O)N1CCC[C@H]1C(=O)N[C@@H](CO)C(=O)N[C@@H](CO)C(=O)N[C@H](C(=O)N[C@@H](CC(N)=O)C(=O)N[C@H](C(=O)NCC(=O)N[C@@H](CO)C(=O)N[C@@H](CCCCN)C(=O)N[C@H](C(=O)N[C@@H](Cc1ccc(O)cc1)C(N)=O)[C@@H](C)O)C(C)C)[C@@H](C)O` [Peptide 13], the “ThT, pH 4.0 lag-time” value in data set [1] worked out at 35 h. In data set [1], this compound had a recovery of 99%. Also, the EC50 is 0.603 nM at rat AMY3R (setting [4]) and 0.599 nM on rat AMY3R (setting [5]). Besides, the “ratio rCTR/rAMY3R” value on rat AMY3R came out at 50. Moreover, in data set [2], the HMWP amounted to 2.1%. Further, the kinetic solubility in data set [3] (setting [6]), in data set [3] (setting [7]), in data set [3] (setting [8]), in data set [3] (setting [9]), in data set [3] (setting [10]) and in data set [3] (setting [11]) was no less than 200 µM in each case. Besides, in data set [3] (setting [12]), the kinetic solubility is no less than 200 µM.
For `CC[C@H](C)[C@H](NC(=O)[C@H](C)NC(=O)CNC(=O)[C@H](Cc1ccccc1)NC(=O)[C@H](CC(N)=O)NC(=O)[C@@H]1CCCN1C(=O)[C@H](CO)NC(=O)[C@H](CO)NC(=O)[C@H](Cc1c[nH]cn1)NC(=O)[C@H](CCCNC(=N)N)NC(=O)[C@H](CC(C)C)NC(=O)[C@H](Cc1ccccc1)NC(=O)[C@H](CC(N)=O)NC(=O)[C@H](C)NC(=O)[C@H](CC(C)C)NC(=O)[C@H](CCCNC(=N)N)NC(=O)[C@H](CCC(N)=O)NC(=O)[C@@H](NC(=O)[C@H](C)NC(=O)[C@@H]1CSSC[C@H](NC(=O)[C@H](CCCCN)NC(=O)COCCOCCNC(=O)COCCOCCNC(=O)CC[C@H](NC(=O)CCCCCCCCCCCCCCCCCCC(=O)O)C(=O)O)C(=O)N[C@@H](CC(N)=O)C(=O)N[C@@H]([C@@H](C)O)C(=O)N[C@@H](C)C(=O)N[C@@H]([C@@H](C)O)C(=O)N1)[C@@H](C)O)C(=O)N1CCC[C@H]1C(=O)N[C@@H](CO)C(=O)N[C@@H](CO)C(=O)N[C@H](C(=O)N[C@@H](CC(N)=O)C(=O)N[C@H](C(=O)NCC(=O)N[C@@H](CO)C(=O)N[C@@H](CC(N)=O)C(=O)N[C@H](C(=O)N[C@@H](Cc1ccc(O)cc1)C(N)=O)[C@@H](C)O)C(C)C)[C@@H](C)O` [Peptide 10], the “ThT, pH 4.0 lag-time” value in data set [1] is listed as 34 h. In addition, in data set [1], the recovery was 0%. Further, the figures for the EC50 on rat AMY3R (setting [4]) and on rat AMY3R (setting [5]) were 1.78 nM and 1.79 nM, respectively. In addition, on rat AMY3R, the “ratio rCTR/rAMY3R” value was found to be 79. This compound came in with an HMWP in data set [2] of 2.7%. Besides, the solubility (kinetic) in data set [3] (setting [6]), in data set [3] (setting [7]), in data set [3] (setting [8]), in data set [3] (setting [9]), in data set [3] (setting [10]) and in data set [3] (setting [11]) was no less than 200 µM each time. Besides, the kinetic solubility in data set [3] (setting [12]) was no less than 200 µM.
